{"source": "patent US11737462B2", "about": "“Methods for modulating plant response to environmentally-induced stress” (Howard University, priority 2012, dated 2023)", "key": {"rice leaves": {"system": "rice leaves", "assay": "uptake of salts from the incubation medium by rice leaves", "assay_type": "in vivo", "settings": "60 μM compound, 250 mM NaCl, vs non-treated leaves", "experimental": "The effect of SD-29 on modulating salt-induced stress was evaluated with rice detached leaves at room temperature (about 24° C.) for seven days in a water incubation medium. All plants received sufficient incubation medium to last the seven days. Plant A (left most) received 250 mM NaCl plus DMSO, Plant B (right of Plant A) received 60 μM SD-29 and 250 mM NaCl, and plant D received 60 μM SD-29 in the incubation medium. The incubation medium of Plant C was untreated. To examine whether the salt stress resistance comes from the differential uptake of sodium ions due to the drug treatment, the uptake of salts from the incubation medium was assayed (leaves from FIG. 5). […] The base point is indicated with 250 mM of salt line."}, "tomato plants": {"system": "tomato plants", "assay": "salt-induced stress in tomato plants", "assay_type": "in vivo", "settings": "60 μM compound plus 250 mM NaCl, five days, about 24° C.", "experimental": "(§1) In the examples described herein, the test compounds (e.g., SD-29 or analogs thereof) were dissolved in dimethyl sulfoxide (DMSO) to provide a 20 mM concentration. Micromolar concentrations were then prepared as needed by addition to the water incubation media. Unless stated otherwise, the experimental plants were incubated with the roots immersed in the water containing the compound. The control plants received only DMSO in the same amount as that of the compound. Salt-induced stress was evaluated with tomato plants at room temperature (about 24° C.) for five days. The plants received sufficient incubation media to last through the five day experiment. Plant A received 60 μM SD-29 plus 250 mM NaCl and plant B received 250 mM NaCl (plus DMSO in the same volume as the volume of SD-29 received by plant A) in the incubation medium."}, "Arabidopsis plants": {"system": "Arabidopsis plants", "assay": "drought-induced stress (sorbitol) in Arabidopsis plants", "assay_type": "in vivo, Arabidopsis thaliana", "settings": "150 mM sorbitol plus 60 μM compound, about three weeks, room temperature", "experimental": "In the examples described herein, the test compounds (e.g., SD-29 or analogs thereof) were dissolved in dimethyl sulfoxide (DMSO) to provide a 20 mM concentration. Micromolar concentrations were then prepared as needed by addition to the water incubation media. Unless stated otherwise, the experimental plants were incubated with the roots immersed in the water containing the compound. The control plants received only DMSO in the same amount as that of the compound. The effect of SD-29 on modulating drought-induced stress was evaluated with Arabidopsis plants for about three weeks at room temperature. Sorbitol was used to imitate drought conditions. All plants received sufficient incubation media to last the seven days. Plant A was treated with DMSO (in a volume equal to the volume of SD-29 used for Plants B and C), plant B was treated with 150 mM sorbitol plus 60 μM SD-29, plant C was treated with 60 μM SD-29, and plant D was treated with 150 mM sorbitol in the incubation medium."}, "bean plants": {"system": "bean plants", "assay": "salt-induced stress in bean plants", "assay_type": "in vivo", "settings": "60 μM compound plus 250 mM NaCl, 96 hours, about 24° C.", "experimental": "as §1, with “bean” for “tomato”, “96 hours. All” for “five days. The”, “last” for “last through”, “seven days.” for “five day experiment.”, “NaCl” for “NaCl (plus DMSO in the same volume as the volume of SD-29 received by plant A)”"}, "Arabidopsis protoplasts": {"system": "Arabidopsis protoplasts", "assay": "H2O2-induced reactive oxygen species in Arabidopsis protoplasts (H2DCF staining)", "assay_type": "cell-based, Arabidopsis thaliana", "settings": "H2O2 for 2 hours, 60 μM compound, H2DCF dye", "experimental": "In this example, to examine whether SD-29 can prevent generation of reactive oxygen species (ROS) under stress, the effect of SD-29 on H2O2 treated Arabidopsis protoplasts was evaluated. Protoplasts were treated with H2O2 for 2 hours with and without 60 μM SD-29. An untreated control was also evaluated. The protoplasts were stained with reactive oxygen species visualization dye H2DCF that fluoresces in the presence of ROS and the treated protoplasts were evaluated using fluorescent microscopy."}, "MnSOD": {"system": "MnSOD", "assay": "native gel assay of Mn-SOD activity in rice during salt stress", "assay_type": "in vivo", "settings": "salt stress conditions, NaCN in gel activity buffer"}, "chloroplastic Cu—Zn SOD": {"system": "chloroplastic Cu—Zn SOD", "assay": "native gel assay of SOD activity in rice leaves", "assay_type": "in vivo", "settings": "set up as FIG. 5: 60 μM compound, 250 mM NaCl; wild-type and RACK1 over-expressing (OX) rice", "experimental": "Native gel analysis was performed on a lysate prepared from the pepper plant leaves in FIG. 8. The gel is stained for detecting enzymatic activity of different isoforms of superoxide dismutase—key enzymes that detoxify the reactive oxygen species which usually develop during the stress conditions. […] Therefore, it appears that SD-29 may help detoxify the cellular reactive oxygen species generated during the salt stress conditions. The wild-type rice plants were compared to a rice plant over-expressing rice RACK1 protein (referred to as “OX”). The OX plants were treated as described in this example for the wild-type rice plant. Native gel assay was performed as described for FIG. 8 and the experimental set up was exactly the same as described for FIG. 5."}, "rice RACK1A": {"target": "T1, rice RACK1A (Oryza sativa subsp. japonica, UniProt P49027)", "T1 construct": "from tissue; host or cells: rice leaves", "T1 sequence (P49027 whole entry)": "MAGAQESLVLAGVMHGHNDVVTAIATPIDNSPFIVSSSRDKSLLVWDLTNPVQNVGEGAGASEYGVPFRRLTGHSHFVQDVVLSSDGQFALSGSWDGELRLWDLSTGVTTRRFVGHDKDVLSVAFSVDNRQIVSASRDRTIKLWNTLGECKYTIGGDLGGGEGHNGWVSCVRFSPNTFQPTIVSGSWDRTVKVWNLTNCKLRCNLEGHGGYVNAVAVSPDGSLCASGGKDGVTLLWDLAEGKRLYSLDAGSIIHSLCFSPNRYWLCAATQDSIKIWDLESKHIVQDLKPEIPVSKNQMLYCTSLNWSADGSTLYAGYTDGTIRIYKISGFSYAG", "assay": "western blot with anti-pY248 of rice leaf lysates under salt stress", "assay_type": "in vivo", "settings": "60 μM compound and 250 mM NaCl, 75 μg protein per lane", "experimental": "The rice leaves were also analyzed by Western blot. Lysates were prepared from the leaves and western blot analysis was carried out using standard methods. 75 μg protein were loaded per lane. The membrane containing transferred proteins were probed with anti-pY248, which is an antibody raised to specifically detect phosphorylated tyrosine at residue 248 of RACK1A."}, "RACK1A:GFP": {"system": "RACK1A:GFP", "assay": "RACK1A:GFP expression in transformed Arabidopsis plants", "assay_type": "in vivo, Arabidopsis thaliana", "settings": "60 μM compound with 250 mM salt for 6 hours", "experimental": "Arabidopsis plants transformed with a RAC[…]:GFP construct were analyzed to determine the effect of SD-29 on expression of RAC[…]. The experimental plant was treated with 60 μM SD-29 with 250 mM salt for 6 hours. Controls were treated with and without salt. […] It is quite possible that downregulation of RAC[…] expression by SD-29 may be the cellular mechanism that allow the plants to withstand salt stress."}}}
{"compound": "Nn1c(S)nnc1-c1ccc(F)cc1", "note": "[SD-29]", "values": [{"measurement": "sodium ions remaining in the incubation medium", "setting": "rice leaves", "value": "more sodium ions remained in the incubation medium"}, {"measurement": "tomato plant condition in high salt", "setting": "tomato plants", "value": "thrived (did not wilt) in the high salt conditions"}, {"measurement": "plant performance under drought-imitating sorbitol", "setting": "Arabidopsis plants", "value": "performed much better than the plant treated with sorbitol alone"}, {"measurement": "bean plant condition in high salt", "setting": "bean plants", "value": "thrived (did not wilt) in the high salt conditions"}, {"measurement": "accumulation of H2O2-induced reactive oxygen species in protoplasts", "setting": "Arabidopsis protoplasts", "value": "prevented accumulation of H2O2-induced reactive oxygen species"}, {"measurement": "MnSOD activity in rice", "setting": "MnSOD", "value": "upregulates MnSOD activity"}, {"measurement": "chloroplastic Cu—Zn SOD activity in rice leaves", "setting": "chloroplastic Cu—Zn SOD", "value": "upregulates chloroplastic Cu—Zn SOD activity"}, {"measurement": "rice RACK1A tyrosine (Y248) phosphorylation under salt stress", "setting": "rice RACK1A", "value": "significantly inhibited rice RACK1A tyrosine phosphorylation"}, {"measurement": "RACK1A:GFP expression", "setting": "RACK1A:GFP", "value": "down regulation of RACK1A:GFP expression"}]}
